SMILES strings stand for the structures. pIC50: −log10 of the molar value.

Holding throughout (format): cell-based
The test system of experiment [1] is NCI-H460. In words: In vitro growth inhibition of PI3KCA amplified/mutant tumor cells NCI-H460. The conditions noted are these: Homo sapiens, NCI-H460, read-out: IC50 growth inhibition. The method, then: (§1) Suspension culture cells were collected by centrifugation (1700 rpm, 3 minutes). The supernatant was discarded and the cells were counted. According to each cell growth cycle, different concentrations of cells were prepared (5˜10×10^4 cells per ml), and inoculated to 96-well plates (Corning), with 100 μl per well, and incubated overnight at 37° C., 5% CO2. The next day, the test compound was added to the cultured cells (2 wells in parallel). The final concentration of the solvent was less than 1/1,000. The cells were further cultured for 3 to 5 days and assayed by MTT.
(§2) The adherent cells were taken out from the cell culture medium, and immediately added to a freshly prepared complete medium containing 10% CCK8 (5% FBS), 100 ul per hole. The suspended cells were directly added to a CCK8 reagent until reaching a final concentration of 10% and cultured for 1 to 4 hours.
(§3) T=optical density of drug-treated cell wells−optical density of blank control wells; T0=optical density of cell wells before drug treatment−optical density of blank control wells; C=optical density of solvent control wells−optical density of blank control wells. […] The experiments were repeated 1 to 3 times and a statistical analysis of data was conducted.

For experiment [2], the system named is SW48. In words: In vitro growth inhibition of PI3KCA amplified/mutant tumor cells SW48. The conditions noted are these: Homo sapiens, SW48, read-out: IC50 growth inhibition. The protocol: as §1, §2, §3
Experiment [3] has as its system HCT116. The experiment is described as follows: In vitro growth inhibition of PI3KCA amplified/mutant tumor cells HCT116. The conditions noted are these: Homo sapiens, HCT-116, read-out: IC50 growth inhibition. The protocol: as §1, §2, §3
In experiment [4] the test system is HCC1954. In words: In vitro growth inhibition of PI3KCA amplified/mutant tumor cells HCC1954. The conditions noted are these: Homo sapiens, HCC1954, read-out: IC50 growth inhibition. The method, then: as §1, §2, §3
The test system of experiment [5] is SK-OV-3. The experiment is described as follows: In vitro growth inhibition of PI3KCA amplified/mutant tumor cells SK-OV-3. The conditions noted are these: Homo sapiens, SK-OV-3, read-out: IC50 growth inhibition. The method, then: as §1, §2, §3
Experiment [6] deals with A2780. In words: In vitro growth inhibition of PI3KCA amplified/mutant tumor cells A2780. The conditions noted are these: Homo sapiens, A2780, read-out: IC50 growth inhibition. The method, then:
as §1, §2, §3

Experiment [7] concerns AGS. In words: In vitro growth inhibition of PI3KCA amplified/mutant tumor cells AGS. The conditions noted are these: Homo sapiens, read-out: IC50 growth inhibition. The method, then:
as §1, §2, §3

For experiment [8], the system named is KYSE70. In words: In vitro growth inhibition of PI3KCA amplified/mutant tumor cells KYSE70. The conditions noted are these: Homo sapiens, KYSE-70, read-out: IC50 growth inhibition. The protocol:
as §1, §2, §3

For experiment [9], the system named is HGC-27. The experiment is described as follows: In vitro growth inhibition of PI3KCA amplified/mutant tumor cells HGC-27. The conditions noted are these: Homo sapiens, HGC-27, read-out: IC50 growth inhibition. The method, then:
as §1, §2, §3

With `COc1c(OCCCN2CCOCC2)ccc2c1N=C(NC(=O)c1cnc(N)nc1)N1CCN=C21` [BAY 80-6946, reference compound], the pIC50 in experiment [1] was 7.52; in [2] it was 7.56; in experiment [3], 7.19; in experiment [4] it was 8.17; in [5], 7.99; in [6], 8.01. Further, the pIC50 is 7.40 in experiment [7], 7.71 in [8] and 7.76 in experiment [9].

By pIC50 is commonly meant −log10 of the IC50, conventionally taken in molar units.

The values are drawn from patent US10800741B2 (ANCUREALL PHARMACEUTICAL (SHANGHAI) CO., LTD., priority 2017, dated 2020).
